The text below walks through data of patent US20240208992A1, “MACROCYCLES AS CFTR MODULATORS” (Idorsia Pharmaceuticals Ltd, priority 2021, published 2024).

Structures are written as SMILES.

This experiment deals with human F508del-CFTR (Homo sapiens, UniProt P13569, DEL508-508). As to the kind of experiment: F508del-CFTR cell surface expression (corrector activity), DiscoveRx ß-galactosidase complementation chemiluminescence assay in recombinant U2OS cell line.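 For all read-outs here: U2OS cells co-expressing ProLink-tagged F508del-CFTR and a membrane-anchored enzyme acceptor, where more surface CFTR restores β-galactosidase activity measured by chemiluminescence.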 Particulars: U2OS cell line, 16h compound incubation; for EC50: EC50, F508del-CFTR cell surface expression, geomean values; for Emax: U2OS, in relation to the Emax of the corrector lumacaftor (=100%), arithmetic mean values.
Sequence of human F508del-CFTR (P13569 with tags, fused parts or gaps DEL508-508): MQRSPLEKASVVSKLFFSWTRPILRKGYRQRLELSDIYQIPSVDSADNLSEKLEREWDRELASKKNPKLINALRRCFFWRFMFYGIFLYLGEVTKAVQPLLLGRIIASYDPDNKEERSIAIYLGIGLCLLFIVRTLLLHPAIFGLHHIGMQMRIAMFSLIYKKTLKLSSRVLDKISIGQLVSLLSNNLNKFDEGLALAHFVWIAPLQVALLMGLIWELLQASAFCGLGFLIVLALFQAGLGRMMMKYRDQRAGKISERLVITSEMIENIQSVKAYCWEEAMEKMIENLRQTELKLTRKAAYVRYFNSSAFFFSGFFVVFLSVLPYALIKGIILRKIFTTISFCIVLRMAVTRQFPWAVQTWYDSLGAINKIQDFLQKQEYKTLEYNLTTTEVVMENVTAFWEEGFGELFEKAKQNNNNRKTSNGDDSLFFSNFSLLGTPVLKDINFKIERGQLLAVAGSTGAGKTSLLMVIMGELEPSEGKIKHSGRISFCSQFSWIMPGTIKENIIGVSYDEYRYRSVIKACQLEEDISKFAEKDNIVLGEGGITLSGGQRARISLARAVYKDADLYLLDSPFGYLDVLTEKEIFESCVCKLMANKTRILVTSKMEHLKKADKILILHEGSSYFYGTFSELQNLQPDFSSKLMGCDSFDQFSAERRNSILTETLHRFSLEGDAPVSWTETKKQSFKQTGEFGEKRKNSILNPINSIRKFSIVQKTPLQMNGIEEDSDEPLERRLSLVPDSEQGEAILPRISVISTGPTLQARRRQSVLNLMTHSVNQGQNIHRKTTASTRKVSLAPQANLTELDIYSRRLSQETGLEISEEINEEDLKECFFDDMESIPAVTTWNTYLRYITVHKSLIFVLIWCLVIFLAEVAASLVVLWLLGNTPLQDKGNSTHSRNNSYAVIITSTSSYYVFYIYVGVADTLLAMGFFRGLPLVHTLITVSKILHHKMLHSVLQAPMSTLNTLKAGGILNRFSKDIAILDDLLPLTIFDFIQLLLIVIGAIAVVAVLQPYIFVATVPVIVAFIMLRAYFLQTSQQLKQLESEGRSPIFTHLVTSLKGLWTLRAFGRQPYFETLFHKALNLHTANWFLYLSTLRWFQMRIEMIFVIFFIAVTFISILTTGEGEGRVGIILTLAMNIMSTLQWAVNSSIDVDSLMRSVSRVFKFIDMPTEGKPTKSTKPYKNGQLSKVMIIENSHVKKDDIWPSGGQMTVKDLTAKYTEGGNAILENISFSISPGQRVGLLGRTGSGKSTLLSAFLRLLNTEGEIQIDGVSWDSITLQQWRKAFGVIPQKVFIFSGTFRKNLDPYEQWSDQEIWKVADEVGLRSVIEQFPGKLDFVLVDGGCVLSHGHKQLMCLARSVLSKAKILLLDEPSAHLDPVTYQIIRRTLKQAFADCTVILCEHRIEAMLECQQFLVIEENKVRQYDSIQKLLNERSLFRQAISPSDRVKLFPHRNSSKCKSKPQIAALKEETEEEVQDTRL

One may read the EC50 as the midpoint of the concentration-response curve. The term Emax denotes the maximal effect, on the per cent scale that the assay sets. Consider `COc1nccc2c1C(=O)N[C@H](C(=O)NCCc1cnn(C3CC3)n1)CC(=O)N(C)[C@@H](CC(C)C)C(=O)N1CCCC[C@@H]1C(=O)N[C@H](Cc1ccccc1)CO2` [Example 187, (7S,11S,17aR,20R)-20-benzyl-N-(2-(2-cyclopropyl-2H-1,2,3-triazol-4-yl)ethyl)-11-isobutyl-4-methoxy-10-methyl-5,9,12,18-tetraoxo-5,6,7,8,9,10,11,12,15,16,17,17a,18,19,20,21-hexadecahydro-14H-dipyrido[2,1-f:3′,4′-p][1]oxa[4,7,10,14]tetraazacycloheptadecine-7-carboxamide], for which the concentration giving a half-maximal response (EC50) amounted to 645 nM and the maximal response (Emax) turned out to be 267%.
For `COc1cnn(CCNC(=O)[C@@H]2CC(=O)N(C)[C@@H](CC(C)C)C(=O)N(C)C3(CC3)C(=O)N[C@H](Cc3ccccc3)COc3cnc4ccc(F)cc4c3C(=O)N2)c1` [Example 188, (3′S,7′S,13′R)-13′-benzyl-20′-fluoro-7′-isobutyl-N-(2-(4-methoxy-1H-pyrazol-1-yl)ethyl)-6′,9′-dimethyl-1′,5′,8′,11′-tetraoxo-2′,3′,4′,5′,6′,7′,8′,9′,11′,12′,13′,14′-dodecahydro-1′H-spiro[cyclopropane-1,10′-[1]oxa[4,7,10,14]tetraazacycloheptadecino[17,16-c]quinoline]-3′-carboxamide], the EC50 is 586 nM and the Emax is 275%.
The matching figures for `C#Cc1cccc(CCNC(=O)[C@@H]2CC(=O)N(C)[C@@H](CC(C)C)C(=O)N3CCCC[C@@H]3C(=O)N[C@H](Cc3ccccc3)COc3ccnc(OC)c3C(=O)N2)c1` [Example 189, (7S,11S,17aR,20R)-20-benzyl-N-(3-ethynylphenethyl)-11-isobutyl-4-methoxy-10-methyl-5,9,12,18-tetraoxo-5,6,7,8,9,10,11,12,15,16,17,17a,18,19,20,21-hexadecahydro-14H-dipyrido[2,1-f:3′,4′-p][1]oxa[4,7,10,14]tetraazacycloheptadecine-7-carboxamide]: 453 nM and 270%.
Take `COc1nccc2c1C(=O)N[C@H](C(=O)NCCc1nc3c(s1)CCC3)CC(=O)N(C)[C@@H](CC(C)C)C(=O)N1CCCC[C@@H]1C(=O)N[C@H](Cc1ccccc1)CO2` [Example 190, (7S,11S,17aR,20R)-20-benzyl-N-(2-(5,6-dihydro-4H-cyclopenta[d]thiazol-2-yl)ethyl)-11-isobutyl-4-methoxy-10-methyl-5,9,12,18-tetraoxo-5,6,7,8,9,10,11,12,15,16,17,17a,18,19,20,21-hexadecahydro-14H-dipyrido[2,1-f:3′,4′-p][1]oxa[4,7,10,14]tetraazacycloheptadecine-7-carboxamide]: the EC50 worked out at 334 nM and the maximal effect (Emax) was 310%.
Consider `COc1nccc2c1C(=O)N[C@H](C(=O)NCCc1cc(C(F)F)no1)CC(=O)N(C)[C@@H](CC(C)C)C(=O)N1CCCC[C@@H]1C(=O)N[C@H](Cc1ccccc1)CO2` [Example 191, (7S,11S,17aR,20R)-20-benzyl-N-(2-(3-(difluoromethyl)isoxazol-5-yl)ethyl)-11-isobutyl-4-methoxy-10-methyl-5,9,12,18-tetraoxo-5,6,7,8,9,10,11,12,15,16,17,17a,18,19,20,21-hexadecahydro-14H-dipyrido[2,1-f:3′,4′-p][1]oxa[4,7,10,14]tetraazacycloheptadecine-7-carboxamide], for which the 50% effective concentration (EC50) was determined as 474 nM and the Emax stood at 295%.
With `COc1cc2c(cc1OC)C(=O)N[C@H](C(=O)NCCc1ccc(C)cc1)CC(=O)N(C)[C@@H](CC(C)C)C(=O)N(C)CC(=O)N[C@H](Cc1ccccc1)CO2` [Example 192, (3R,9S,13S)-3-benzyl-9-isobutyl-17,18-dimethoxy-7,10-dimethyl-N-(4-methylphenethyl)-5,8,11,15-tetraoxo-2,3,4,5,6,7,8,9,10,11,12,13,14,15-tetradecahydrobenzo[p][1]oxa[4,7,10,14]tetraazacycloheptadecine-13-carboxamide], the EC50 was 316 nM and the maximal effect (Emax) stood at 107%.
Regarding `COc1ccc(CCNC(=O)[C@@H]2CC(=O)N(C)[C@@H](CC(C)C)C(=O)N(C)CC(=O)N[C@H](Cc3ccccc3)COc3cc(OC)c(OC)cc3C(=O)N2)cc1` [Example 193, (3R,9S,13S)-3-benzyl-9-isobutyl-17,18-dimethoxy-N-(4-methoxyphenethyl)-7,10-dimethyl-5,8,11,15-tetraoxo-2,3,4,5,6,7,8,9,10,11,12,13,14,15-tetradecahydrobenzo[p][1]oxa[4,7,10,14]tetraazacycloheptadecine-13-carboxamide], the EC50 turned out to be 521 nM and the Emax was 118%.
As for `CCOc1cccc(CCNC(=O)[C@@H]2CC(=O)N(C)[C@@H](CC(C)C)C(=O)N(C)CC(=O)N[C@H](Cc3ccccc3)COc3cc(OC)c(OC)cc3C(=O)N2)c1` [Example 194, (3R,9S,13S)-3-benzyl-N-(3-ethoxyphenethyl)-9-isobutyl-17,18-dimethoxy-7,10-dimethyl-5,8,11,15-tetraoxo-2,3,4,5,6,7,8,9,10,11,12,13,14,15-tetradecahydrobenzo[p][1]oxa[4,7,10,14]tetraazacycloheptadecine-13-carboxamide], the EC50 was 613 nM and the maximum response (Emax) was 178%.
Consider `COc1cccc(CCNC(=O)[C@@H]2CC(=O)N(C)[C@@H](CC(C)C)C(=O)N(C)CC(=O)N[C@H](Cc3ccccc3)COc3cc(OC)c(OC)cc3C(=O)N2)c1` [Example 195, (3R,9S,13S)-3-benzyl-9-isobutyl-17,18-dimethoxy-N-(3-methoxyphenethyl)-7,10-dimethyl-5,8,11,15-tetraoxo-2,3,4,5,6,7,8,9,10,11,12,13,14,15-tetradecahydrobenzo[p][1]oxa[4,7,10,14]tetraazacycloheptadecine-13-carboxamide], for which the EC50 came to 889 nM and the maximal response (Emax) came out at 202%.
As to `COc1cc2c(cc1OC)C(=O)N[C@H](C(=O)NCCc1ccccc1F)CC(=O)N(C)[C@@H](CC(C)C)C(=O)N(C)CC(=O)N[C@H](Cc1ccccc1)CO2` [Example 196, (3R,9S,13S)-3-benzyl-N-(2-fluorophenethyl)-9-isobutyl-17,18-dimethoxy-7,10-dimethyl-5,8,11,15-tetraoxo-2,3,4,5,6,7,8,9,10,11,12,13,14,15-tetradecahydrobenzo[p][1]oxa[4,7,10,14]tetraazacycloheptadecine-13-carboxamide], the half-maximal effective concentration (EC50) came to 425 nM and the Emax was 106%.
For the compound `COc1cc2c(cc1OC)C(=O)N[C@H](C(=O)NCCc1ccc(N(C)C)cc1)CC(=O)N(C)[C@@H](CC(C)C)C(=O)N(C)CC(=O)N[C@H](Cc1ccccc1)CO2` [Example 197, (3R,9S,13S)-3-benzyl-N-(4-(dimethylamino)phenethyl)-9-isobutyl-17,18-dimethoxy-7,10-dimethyl-5,8,11,15-tetraoxo-2,3,4,5,6,7,8,9,10,11,12,13,14,15-tetradecahydrobenzo[p][1]oxa[4,7,10,14]tetraazacycloheptadecine-13-carboxamide], the EC50 was determined as 579 nM and the maximal response (Emax) was found to be 132%.
With `COc1cccc2c1C(=O)N[C@H](C(=O)NCCc1ccc3c(c1)OCO3)CC(=O)N(C)[C@@H](CC(C)C)C(=O)N(CCC1CCCCC1)CC(=O)N[C@H](Cc1ccccc1)CO2` [Example 198, (3R,9S,13S)-N-(2-(benzo[d][1,3]dioxol-5-yl)ethyl)-3-benzyl-7-(2-cyclohexylethyl)-9-isobutyl-16-methoxy-10-methyl-5,8,11,15-tetraoxo-2,3,4,5,6,7,8,9,10,11,12,13,14,15-tetradecahydrobenzo[p][1]oxa[4,7,10,14]tetraazacycloheptadecine-13-carboxamide], the EC50 turned out to be 195 nM and the Emax is 243%.
On to `COc1cccc(CCNC(=O)[C@@H]2CC(=O)N(C)[C@@H](CC(C)C)C(=O)N(CCC3CCCCC3)CC(=O)N[C@H](Cc3ccccc3)COc3cccc(OC)c3C(=O)N2)c1` [Example 199, (3R,9S,13S)-3-benzyl-7-(2-cyclohexylethyl)-9-isobutyl-16-methoxy-N-(3-methoxyphenethyl)-10-methyl-5,8,11,15-tetraoxo-2,3,4,5,6,7,8,9,10,11,12,13,14,15-tetradecahydrobenzo[p][1]oxa[4,7,10,14]tetraazacycloheptadecine-13-carboxamide], for which the concentration giving a half-maximal response (EC50) worked out at 230 nM and the Emax was found to be 214%.
Consider `[2H]C([2H])([2H])Oc1cccc(CCNC(=O)[C@@H]2CC(=O)N(C)[C@@H](CC(C)C)C(=O)N(CCC3CCCCC3)CC(=O)N[C@H](Cc3ccccc3)COc3cccc(OC)c3C(=O)N2)c1` [Example 200, (3R,9S,13S)-3-benzyl-7-(2-cyclohexylethyl)-9-isobutyl-16-methoxy-N-(3-(methoxy-d3)phenethyl)-10-methyl-5,8,11,15-tetraoxo-2,3,4,5,6,7,8,9,10,11,12,13,14,15-tetradecahydrobenzo[p][1]oxa[4,7,10,14]tetraazacycloheptadecine-13-carboxamide], for which the EC50 was 210 nM and the maximal effect (Emax) is 270%.
For the compound `CCOc1cccc(CCNC(=O)[C@@H]2CC(=O)N(C)[C@@H](CC(C)C)C(=O)N(CCC3CCCCC3)CC(=O)N[C@H](Cc3ccccc3)COc3cccc(OC)c3C(=O)N2)c1` [Example 201, (3R,9S,13S)-3-benzyl-7-(2-cyclohexylethyl)-N-(3-ethoxyphenethyl)-9-isobutyl-16-methoxy-10-methyl-5,8,11,15-tetraoxo-2,3,4,5,6,7,8,9,10,11,12,13,14,15-tetradecahydrobenzo[p][1]oxa[4,7,10,14]tetraazacycloheptadecine-13-carboxamide], the concentration giving a half-maximal response (EC50) came out at 222 nM and the Emax turned out to be 109%.
For the compound `COc1cccc2c1C(=O)N[C@H](C(=O)NCCc1ccc(C)cc1)CC(=O)N(C)[C@@H](CC(C)C)C(=O)N(CCC1CCCCC1)CC(=O)N[C@H](Cc1ccccc1)CO2` [Example 202, (3R,9S,13S)-3-benzyl-7-(2-cyclohexylethyl)-9-isobutyl-16-methoxy-10-methyl-N-(4-methylphenethyl)-5,8,11,15-tetraoxo-2,3,4,5,6,7,8,9,10,11,12,13,14,15-tetradecahydrobenzo[p][1]oxa[4,7,10,14]tetraazacycloheptadecine-13-carboxamide], the 50% effective concentration (EC50) amounted to 187 nM and the Emax is 160%.
